From patent publication US20120213789A1, “New Molecular Target for Treatment of Cancer” (priority 2001, published 2012) come the findings set out here.

Common to all, as to type: cell-based, human
The test system of one assay is LNCaP cell line. Briefly: Dose-response kinetics of UC28 protein expression by flow cytometry. On the procedure: (§1) Cells were grown to 70-80% confluence at 37° C. and 5% CO2 in T-75 tissue culture plastic flasks. SPB stock solution was added to final concentrations of 0.5, 5.0, 10.0, and 25.0 mM in appropriate fresh media to the cell cultures. Cells were incubated at 37° C. and 5% CO2 for 72 hours. Attached cells were then harvested using a solution of 0.05% trypsin and 0.53 mM EDTA (Invitrogen Corp.). Attached cells were then pooled with any the detached cells and washed with PBS pH 7.2. Cell numbers and percent viability were determined using Trypan blue dye exclusion and a hemacytometer. At the time of their use in an experiment the viability was usually about 85% for untreated cells and a range of about 15-70% for treated cells, with the lower viabilities found at higher SPB concentrations (Thompson C, 1995; Cory et al., 1998; van Engeland et al., 1996). UC28(C) is 2.14 mg/ml rabbit polyclonal aliquot directed against the inventors' UC28 patented biomarker developed by UCor R&D gene discovery program. The Antibody was produced against a twenty amino acid (AA) synthetic peptide from the predicted AA sequence (AA 21-37) UCor, Inc. 840 Research Parkway Oklahoma City, Okla. 73104. Goat Anti-Rabbit CY5 polyclonal Fluorchrome was used as the secondary conjugate for UC28 C rabbit polyclonal antibody and a background control for UC28 C polyclonal. Vendor is Jackson ImmunoResearch Laboratories, Inc. 872 West Baltimore Pike, P.O. Box 9 West Grove, Pa. 19390. A Coulter Elite engineered with a triple laser system was used to analyze all samples. Coulter control beads were used to align lasers for the dual label testing of cell samples. Laser alignment was required for both the Argon (488 nm line) laser and HeNe (633 nm line) laser. These alignments were performed prior to all measurements with the Argon laser (488 nm line) using fluorophores for FITC, RPE, PI and the HeNe laser (633 nm line) for the Cy5 fluorophores being used for the experiments described below. The histographs, voltage settings, gates, color compensation, and pressures were established prior to all sample processing. […] The data confirms the biological differences in these three cell lines and provides a stronger basis upon which to assess the behavior of the UC28 gene under the same SPB treatment conditions. For both of these experiments, supernatants were collected from the same experiments as in Example 1; cells were collected and assayed for apoptosis as well as for UC28 antigen expression using antibodies to SEQ ID NO:4.
(Flow cytometry measures light scatter and fluorescence of single cells or particles in a stream.)

A further assay deals with C4-2B cell line. The description is as above. As for the experimental part: as §1
Assay [1] has as its system C4-2B Metastatic Prostate Cell Line. Briefly: UROC28/Bcl-2 label flow cytometry after SPB treatment. The note with it: for Total Bcl-2 / Total UC2BC: section UROC28/Bcl-2. As for the experimental part: Cells were grown to 70-80% confluence at 37° C. and 5% CO2 in T-75 tissue culture plastic flasks. SPB stock solution was added to final concentrations of 0.5, 5.0, 10.0, and 25.0 mM in appropriate fresh media to the cell cultures. Cells were incubated at 37° C. and 5% CO2 for 72 hours. Attached cells were then harvested using a solution of 0.05% trypsin and 0.53 mM EDTA (Invitrogen Corp.). Attached cells were then pooled with any the detached cells and washed with PBS pH 7.2. Cell numbers and percent viability were determined using Trypan blue dye exclusion and a hemacytometer. At the time of their use in an experiment the viability was usually about 85% for untreated cells and a range of about 15-70% for treated cells, with the lower viabilities found at higher SPB concentrations (Thompson C, 1995; Cory et al., 1998; van Engeland et al., 1996).
UC28(C) is 2.14 mg/ml rabbit polyclonal aliquot directed against the inventors' UC28 patented biomarker developed by UCor R&D gene discovery program. The Antibody was produced against a twenty amino acid (AA) synthetic peptide from the predicted AA sequence (AA 21-37) UCor, Inc. 840 Research Parkway Oklahoma City, Okla. 73104.
Goat Anti-Rabbit CY5 polyclonal Fluorchrome was used as the secondary conjugate for UC28 C rabbit polyclonal antibody and a background control for UC28 C polyclonal. Vendor is Jackson ImmunoResearch Laboratories, Inc. 872 West Baltimore Pike, P.O. Box 9 West Grove, Pa. 19390.
Bc12 IgG1 kappa-FITC isomer 1 is a purified monoclonal mouse specific for Bc1-2 protein. Vendor is Dalco Corporation 6392 Via Real, Carpinteria, Calif. 93013 USA.
MsIgG1 kappa-FITC isomer 1 is a purified isotype specific control for Bc1-2 monoclonal antibody. Vendor is Dako Corporation 6392 Via Real, Carpinteria, Calif. 93013 USA.
Cytofix/Cytoperm™ ICit enables fixation and permeabilization of cells prior to staining with fluorochrome-conjugated antibodies. Vendor is BD-PharMingen, 10975 Torreyana Road, San Diego, Calif. 92121-1106.
A Coulter Elite engineered with a triple laser system was used to analyze all samples. Coulter control beads were used to align lasers for the dual label testing of cell samples. Laser alignment was required for both the Argon (488 nm line) laser and HeNe (633 nm line) laser. These alignments were performed prior to all measurements with the Argon laser (488 nm line) using fluorophores for FITC, RPE, PI and the HeNe laser (633 nm line) for the Cy5 fluorophores being used for the experiments described below. The histographs, voltage settings, gates, color compensation, and pressures were established prior to all sample processing.
(a) Tissue culture cells (MLC-SV40, LNCaP and C 4-2B) were aliquoted at concentration of 1×10^6 per teach 12×75 mm polystyrene tube. Label tubes as follows: • (i) No Antibody • (ii) Secondary GAR-CY5 polyclonal=(control for UC28 CIDGARCY5 polyclonal) vs MsIgG1-RPE (control for FAS-RPE monoclonal) • (iii) UC28 C-IDGARCY5 polyclonal vs FAS (CD45)—RPE monoclonal • (iv) SecondaryGAR-CY5 polyclonal=(control for UC28 C-IDGARCY5 polyclonal) vs MsIgG1-FITC (control for Bc12-FITC monoclonal) • (v) UC28 C-IDGARCY5 polyclonal vs Bc12-FITC monoclonal • (vi) UC28 C-IDGARCY5 Polyclonal=(single label for checking instrument after setting Coulter Elite flow cytometer for dual analysis using the three different fluorchromes.) • (vii) FAS ([…])—RPE monoclonal=(single label for checking instrument after setting Coulter Elite flow cytometer for dual analysis using the three different fluorchromes.) • (viii) Bc12-FITC monoclonal=(single label for checking instrument after setting Coulter Elite flow cytometer for dual analysis using the three different fluorchromes.)
(c) A volume of 100 μl of UC28 C rabbit polyclonal unconjugated antibody was added to the appropriately labeled tubes. All other tubes received 100 μl PBS (pH7.3) and all tubes were incubated at room temp in the dark for 1 hour. […]

With `O=C([O-])CCCc1ccccc1.[Na+]` [SPB, 4-Phenylbutyric Acid, Sodium Salt], the “UC28 membrane protein expression” value is listed as “dramatically over expressing” with LNCaP cell line (0.5 to 25 mM SPB, LNCaP) and “dramatically over expressing” in the assay on C4-2B cell line (0.5 to 25 mM SPB, C4-2B). The URCO28 expression entry in the assay on LNCaP cell line (LNCap treated with SPB) and in the assay with C4-2B cell line (C4-2B treated with SPB) was “remained elevated” in each case. The “Total Bcl-2” value in assay [1] (5.0 mM SPB) came to 5.4%; in assay [1] (10 mM SPB) it was 0.3%. Moreover, the “Total UC2BC” value in assay [1] (5.0 mM SPB) is recorded as 96.0%; in assay [1] (10 mM SPB) it was 93.9%. Also, in assay [1] (SPB, summary of Table 7), the Bc1-2 protein expression entry was “markedly depressed”. For the same compound, in assay [1] (SPB, summary of Table 7), the UC28 expression result is “significantly up regulated”.
